Data published in US20250082674A1, “METHODS OF TREATING COPPER METABOLISM-ASSOCIATED DISEASES OR DISORDERS” (priority 2021, published 2025).
Like-named read-outs stand apart in the source and are kept apart here.

Columns and labels:
copper [1] = conditions: Study 201, BC-TTM monotherapy, Week 24
[2] = human, in vivo
[3] = in vivo
Description: (§1) These participants had all intake (food and drink) and output (urine and feces) collected from Day-4 through Day-1 (baseline), from Day 1 through Day 8, and Day 25 through Day 39.

copper [4] = system: copper
Description: as §1

copper [5] = conditions: Study 204, Days 1-8 (Accumulation 15 mg/day)
Procedure: Study 204 is registered with ClinicalTrials.gov, number NCT04573309, and is described in Example 1 of U.S. Provisional Patent Application No. 63/237,120, filed Aug. 25, 2021, and incorporated by reference herein. […] The participants remained on a Cu-controlled diet, and Cu and Mo balance were measured on all intake (i.e., investigational agent, food and fluids) and all output (urine and feces). The Cu and Mo concentration of each sample was determined by inductively coupled plasma mass spectrometry (ICP-MS). Copper and Mo content of all intake and output was calculated based on the volume or weight of intake and output and the concentration of representative samples.
Collection periods for feces and urine varied in duration from 3 to 15 days to support assessment of both Cu and Mo balance before and at steady state for both 15 mg and 30 mg. Equilibration periods on Cu/Mo-controlled diets were a minimum of 48 hours. Copper balance was calculated as the mean daily Cu balance over each of the 4 collection periods. The interpretation of Cu balance was based on the criteria previously established when undertaking Cu balance studies with zinc treatment.
as §1

For Bis-choline tetrathiomolybdate [BC-TTM], the “reduction of mean serum cNCCcorrected compared with baseline” value (copper [1]) was 72%, the “covariate effect of age on plasma total molybdenum clearance” value [2] was “age is not a significant covariate” and the “participants in whom dose escalation was not carried out due to elevation of liver enzymes” value [3] was 2 participants. For the same substance, the “Increase from Baseline in Directly Measured NCC, Mean (SD)” value (copper [4]; Study 204, Day 1, 2 Hours Post-Dose) was 0.5004 (0.7105) μmol/L, the “Increase from Baseline in Directly Measured NCC, Mean (SD)” value (copper [4]; Study 204, Day 1, 4 Hours Post-Dose) was 1.96 (1.804) μmol/L and the “Increase from Baseline in Directly Measured NCC, Mean (SD)” value (copper [4]; Study 204, Day 1, 5 Hours Post-Dose) was 2.719 (2.534) μmol/L. The “Increase from Baseline in Directly Measured NCC, Mean (SD)” value (copper [4]; Study 204, Day 1, 6 Hours Post-Dose) was 2.324 (2.086) μmol/L, the “Increase from Baseline in Directly Measured NCC, Mean (SD)” value (copper [4]; Study 204, Day 1, 8 Hours Post-Dose) was 2.402 (2.183) μmol/L and the “Increase from Baseline in Directly Measured NCC, Mean (SD)” value (copper [4]; Study 204, Day 1, 12 Hours Post-Dose) was 1.725 (1.575) μmol/L. For the same substance, the “Increase from Baseline in Directly Measured NCC, Mean (SD)” value (copper [4]; Study 204, Day 1, 24 Hours Post-Dose) was 1.063 (1.074) μmol/L, the “Increase from Baseline in Directly Measured NCC, Mean (SD)” value (copper [4]; Study 204, Day 4, Pre-Dose) was 2.677 (1.297) μmol/L and the “Increase from Baseline in Directly Measured NCC, Mean (SD)” value (copper [4]; Study 204, Day 5, Pre-Dose) was 3.144 (1.37) μmol/L. The “Increase from Baseline in Directly Measured NCC, Mean (SD)” value (copper [4]; Study 204, Day 6, Pre-Dose) was 3.574 (1.57) μmol/L, the “Increase from Baseline in Directly Measured NCC, Mean (SD)” value (copper [4]; Study 204, Day 7, Pre-Dose) was 3.7 (1.709) μmol/L and the “Increase from Baseline in Directly Measured NCC, Mean (SD)” value (copper [4]; Study 204, Day 25, 2 Hours Post-Dose) was 2.551 (1.063) μmol/L. The “Increase from Baseline in Directly Measured NCC, Mean (SD)” value (copper [4]; Study 204, Day 25, 4 Hours Post-Dose) was 3.443 (2.008) μmol/L, the “Increase from Baseline in Directly Measured NCC, Mean (SD)” value (copper [4]; Study 204, Day 25, 5 Hours Post-Dose) was 3.38 (2.478) μmol/L and the “Increase from Baseline in Directly Measured NCC, Mean (SD)” value (copper [4]; Study 204, Day 25, 6 Hours Post-Dose) was 4.44 (2.949) μmol/L. For the same substance, the “Increase from Baseline in Directly Measured NCC, Mean (SD)” value (copper [4]; Study 204, Day 25, 8 Hours Post-Dose) was 5.101 (2.491) μmol/L, the “Increase from Baseline in Directly Measured NCC, Mean (SD)” value (copper [4]; Study 204, Day 25, 12 Hours Post-Dose) was 4.917 (2.463) μmol/L and the “Increase from Baseline in Directly Measured NCC, Mean (SD)” value (copper [4]; Study 204, Day 25, 24 Hours Post-Dose) was 3.438 (1.754) μmol/L. For the same substance, the “Increase from Baseline in Directly Measured NCC, Mean (SD)” value (copper [4]; Study 204, Day 25, −0.5 Hours) was 2.121 (0.611) μmol/L, the “Increase from Baseline in Directly Measured NCC, Mean (SD)” value (copper [4]; Study 204, Day 27, Pre-Dose) was 2.767 (1.755) μmol/L and the “Increase from Baseline in Directly Measured NCC, Mean (SD)” value (copper [4]; Study 204, Day 28, Pre-Dose) was 2.327 (1.376) μmol/L. The “Increase from Baseline in Directly Measured NCC, Mean (SD)” value (copper [4]; Study 204, Day 29, 2 Hours Post-Dose) was 2.814 (0.884) μmol/L, the “Increase from Baseline in Directly Measured NCC, Mean (SD)” value (copper [4]; Study 204, Day 29, 4 Hours Post-Dose) was 3.38 (1.494) μmol/L and the “Increase from Baseline in Directly Measured NCC, Mean (SD)” value (copper [4]; Study 204, Day 29, 5 Hours Post-Dose) was 4.078 (1.939) μmol/L. The “Increase from Baseline in Directly Measured NCC, Mean (SD)” value (copper [4]; Study 204, Day 29, 6 Hours Post-Dose) was 4.686 (2.237) μmol/L, the “Increase from Baseline in Directly Measured NCC, Mean (SD)” value (copper [4]; Study 204, Day 29, 8 Hours Post-Dose) was 5.305 (2.311) μmol/L and the “Increase from Baseline in Directly Measured NCC, Mean (SD)” value (copper [4]; Study 204, Day 29, 12 Hours Post-Dose) was 4.749 (2.205) μmol/L. For the same substance, the “Increase from Baseline in Directly Measured NCC, Mean (SD)” value (copper [4]; Study 204, Day 29, 24 Hours Post-Dose) was 3.543 (1.397) μmol/L, the “Increase from Baseline in Directly Measured NCC, Mean (SD)” value (copper [4]; Study 204, Day 29, −0.5 Hours) was 2.662 (1.209) μmol/L and the “Increase from Baseline in Directly Measured NCC, Mean (SD)” value (copper [4]; Study 204, Day 31, Pre-Dose) was 4.121 (2.779) μmol/L. For the same substance, the “Increase from Baseline in Directly Measured NCC, Mean (SD)” value (copper [4]; Study 204, Day 32, Pre-Dose (N=1)) was 8.131 (NA) μmol/L, the “Increase from Baseline in Directly Measured NCC, Mean (SD)” value (copper [4]; Study 204, Day 33, Pre-Dose) was 4.231 (4.114) μmol/L and the “Increase from Baseline in Directly Measured NCC, Mean (SD)” value (copper [4]; Study 204, Day 34, Pre-Dose) was 4.103 (3.872) μmol/L. For the same substance, the “Increase from Baseline in Directly Measured NCC, Mean (SD)” value (copper [4]; Study 204, Day 35, Pre-Dose) was 4.49 (4.526) μmol/L, the “Increase from Baseline in Directly Measured NCC, Mean (SD)” value (copper [4]; Study 204, Day 36, Pre-Dose) was 3.465 (3.016) μmol/L and the “Increase from Baseline in Directly Measured NCC, Mean (SD)” value (copper [4]; Study 204, Day 37, Pre-Dose) was 4.168 (4.069) μmol/L. For the same substance, the “Increase from Baseline in Directly Measured NCC, Mean (SD)” value (copper [4]; Study 204, Day 38, Pre-Dose (N=1)) was 7.643 (NA) μmol/L, the “Increase from Baseline in Directly Measured NCC, Mean (SD)” value (copper [4]; Study 204, Day 39, 2 Hours Post-Dose) was 3.816 (3.943) μmol/L and the “Increase from Baseline in Directly Measured NCC, Mean (SD)” value (copper [4]; Study 204, Day 39, 4 Hours Post-Dose) was 5.578 (5.922) μmol/L. For the same substance, the “Increase from Baseline in Directly Measured NCC, Mean (SD)” value (copper [4]; Study 204, Day 39, 5 Hours Post-Dose) was 6.26 (6.245) μmol/L, the “Increase from Baseline in Directly Measured NCC, Mean (SD)” value (copper [4]; Study 204, Day 39, 6 Hours Post-Dose) was 6.659 (5.704) μmol/L and the “Increase from Baseline in Directly Measured NCC, Mean (SD)” value (copper [4]; Study 204, Day 39, 8 Hours Post-Dose) was 7.32 (6.096) μmol/L. The “Increase from Baseline in Directly Measured NCC, Mean (SD)” value (copper [4]; Study 204, Day 39, 12 Hours Post-Dose) was 6.554 (4.695) μmol/L, the “Increase from Baseline in Directly Measured NCC, Mean (SD)” value (copper [4]; Study 204, Day 39, 24 Hours Post-Dose) was 4.545 (3.677) μmol/L and the “Increase from Baseline in Directly Measured NCC, Mean (SD)” value (copper [4]; Study 204, Day 39, −0.5 Hours) was 3.412 (3.688) μmol/L. The “Daily Net Copper Balance, Change from Baseline, Median (IQR)” value (copper [5]) was −0.4291 (0.2176) mg, the “Daily Net Copper Balance, Value, Mean (SD)” value (copper [5]) was 0.7654 (0.3538) mg and the “Daily Net Copper Balance, Value, Median (IQR)” value (copper [5]) was 0.6678 (0.6871) mg. For the same substance, the “Increase from Baseline in Average Daily Fecal Copper Excretion, Mean (SD)” value (copper [5]) was 0.3278 (0.319) mg and the “Increase from Baseline in Average Daily Urine Copper Excretion, Mean (SD)” value (copper [5]) was −0.0108 (0.01119) mg.
